The record followed here is US11091460B2, “Syk inhibitor and use method therefor” (CHIA TAI TIANQING PHARMACEUTICAL GROUP CO., LTD., priority 2017, dated 2021).

In one assay the target is T1, SYK kinase (Homo sapiens, UniProt P43405).
T1 construct: purchased Invitrogen PV3857
Nature of the assay: In vitro test of the inhibition effect on SYK kinase (HTRF). In kind it is biochemical. Conditions: tyrosine kinase 0.0156 ng/μL, substrate 0.2 uM, ATP 2 uM, 23° C. 1 hour, read-out: Inhibit SYK kinase IC50. As for the experimental part: Experimental Example 1: In Vitro Test of the Inhibition Effect of the Example Compounds on SYK Kinase
Adenosine triphosphate concentration was controlled at 2 uM. • 4) Loaded with a Multidrop automatic dispenser, and a mixture of tyrosinase solution and tyrosine kinase-substrate-biotin/adenosine triphosphate was added in an amount of 5 ul per well, and incubated at 23° C. for 1 hour. • c) Detection phase: • 1) Added 13.33 mL of ethylenediaminetetraacetic acid solution to the Detection Buffer in the kit, added the specified amount of […] (Eu)-labeled antibody and streptavidin XL-665, and prepared the detection solution. • 2) Loaded with a Multidrop automatic dispenser, and 10 uL of the detection solution per well, incubated at 23° C. for 1 hour. It terminated the reaction of the enzyme and substrate mixture. • 3) Reading after centrifugation on a multi-function microplate reader, • d) Data Analysis: Analyzed the data with XL-Fit, and calculated the IC50 value of the compound.
In general terms: In TR-FRET formats the signal depends on donor and acceptor labels being close together.

The subject of another assay is AKT phosphorylation. Nature of the assay: In vitro test of the inhibition effect on AKT phosphorylation (ELISA, Ramos cells). The assay is classed as cell-based. Particulars: Homo sapiens, Ramos. As for the experimental part:
Experimental Example 2: In Vitro Test of the Inhibition Effect of the Example Compounds on AKT Phosphorylation
• 2.1 Experimental Purpose: Intracellular protein kinase AKT phosphorylation detected by experiment was measured by enzyme-linked immunosorbent assay (ELISA), and the inhibition of the compound on protein kinase AKT phosphorylation was evaluated by an index of the half-cell inhibition concentration (IC50) value of the compound. • 2.2 Experimental Materials: • Cell line: Ramos cell line • Cell culture medium (RPMI1640, Invitrogen #22400-105; 10% serum Gibco #10099-141; L-glutamine 1×, Gibco #25030-081) • Experimental medium (without serum, RPM11640, Invitrogen #22400-105; L-glutamine 1×, Gibco #25030) • Lysis buffer (trishydroxymethylaminomethane hydrochloride, Invitrogen15567-1000 ml; sodium chloride, domestic; sodium deoxycholate, Sigma30970-25 G; polyethylene glycol octylphenyl ether, SigmaT9284-100 ml; dodecane sodium sulfonate, SigmaL3771; ethylenediaminetetraacetic acid, Invitrogen15575-038-100 ml; ultrapure water, MilliQ) • Protease inhibitor (Roche, 4693159001-30/BOX) • Phosphatase inhibitor mixture 2 (Sigma, P5726-5 ML) • Phosphatase inhibitor mixture 3 (Sigma, P0044-5 ML) • Goat Anti-Human immunoglobulin M (F(ab′)2 Goat Anti-Human IgM) (Jackson Immuno Research-109-006-129) • Phosphorylated AKT assay kit (Phospho-AKT 1/2/3 (ser473)) (TGR Bioscience, EKT002) • 10× Hank's balanced salt solution (Gibco #14065-056) • 96-well cell plate (Greiner #655090) • Compound V-well dilution plate (Axygen #WITP02280) • CO2 incubator (Thermo #371) • Centrifuge (Eppendorf #581 OR) • Vi-cell cell counter (Beckman Coulter) • Pipette (Eppendorf) • Pipette (Greiner) • Pipetting gun (Eppendorf) • Multi-purpose microplate reader (Envision Reader) • 2.3 Experimental procedures and methods: • a) Cell Seeding (Ramos Cells) • 1) The medium was preheated in a 37° C. water bath. Suspended cells and their culture solution were aspirated, centrifuged at 1000 rpm for 5 minutes. • 2) Aspirated the cell culture medium, added 10 mL of pre-warmed medium to the centrifuge tube, blew off the resuspended cells, pipette 1 mL of the cell suspension, and counted with Vi-cell; • 3) The Ramos cells were diluted with a medium to a density of 5×10^6/mL, and the diluted cells were added to a 96-well cell culture plate (100 μL/well) using a lance. Placed the cell plates in a 37° C., 5% CO2 incubator for overnight. • b) Cell starvation: • 1) After cultured the inoculation cells for overnight, centrifuged at 1000 rpm for 5 minutes on the next day, aspirated the original medium by a lance, added serum-free experimental medium, placed the cell plates in a 37° C., 5% CO2 incubator, and starved for overnight. • c) Compound preparation and dosing: • 1) The compound was diluted with dimethyl sulfoxide to give an initial concentration of 5 mM. A triple gradient dilution was done with compound V dilution plate to make 10 concentration points. • 2) Took another new compound V-well dilution plate, added 198 ul of serum-free experimental medium to each well, and then added 2 ul of the diluted compound above to each well, and mixed with a lance. […]
A general note: An ELISA detects its analyte on a solid surface through an enzyme-linked reagent.

The mark [1] stands for this setting: Ramos cell line, compound 1 hour, goat anti-human IgM 10 ug/ml for 10 minutes, Phospho-AKT 1/2/3 (ser473) ELISA, read-out: Inhibit AKT phosphorylation IC50.
Setting [2] is: read-out: Inhibit AKT phosphorylation IC50 (nM).

Where two headings read alike, the source gives them in different places.

With `Cc1[nH]ncc1-c1ccc2nc(Nc3ccc(N4CCOCC4)cc3)c(=O)n(C)c2c1` [Example 29, 1-Methyl-7-(5-methyl-1H-pyrazol-4-yl)-3-((4-morpholinephenyl)amino)quinoxaline-2(1H)-one], the values for the IC50 on SYK kinase and in the assay with AKT phosphorylation (setting [1]) were 61 nM and 233 nM, respectively.
On to `Cn1c(=O)c(Nc2ccc(N3CCOCC3)cn2)cc2cc(-c3cc[nH]n3)c(F)cc21` [Example 6, 7-Fluoro-1-methyl-3-((5-morpholinepyridin-2-yl)amino)-6-(1H-pyrazol-3-yl)quinoline-2(1H)-one], for which the values for the IC50 on SYK kinase and with AKT phosphorylation (setting [2]) were 21.1 nM and 446 nM, respectively.
`CN1CCN(c2ccc(Nc3nc4ccc(-c5cn[nH]c5)cc4n(C)c3=O)cc2)CC1` [Example 33, 1-Methyl-3((4-(4-methylpiperazin-1-yl)phenyl)amino)-7-(1H-pyrazol-4-yl) quinoxaline-2(1H)-one]: the values for the IC50 at SYK kinase and in the assay with AKT phosphorylation (setting [2]) were 3.2 nM and 226 nM, respectively.
In the same order, the values of `Cn1c(=O)c(Nc2ccc(N3CCCC(C(=O)O)C3)cc2)nc2ccc(-c3cn[nH]c3)cc21` (stereo not drawn) [Example 55, 1-(4-((4-methyl-3-oxo-6-(1H-pyrazol-4-yl)-3,4-dihydroquinoxalin-2-yl)amino)phenyl)piperidine-3-carboxylic acid] are 4.1 nM and 116 nM.
`Cn1c(=O)c(Nc2ccc(N3CCOCC3)cc2)nc2ccc(-c3csc(N)n3)cc21` [Example 59, 7-(2-Aminothiazol-4-yl)-1-methyl-3-((4-morpholinephenyl)amino)quinoxaline-2(1H)-one]: the IC50 on SYK kinase is 46 nM; in the assay on AKT phosphorylation (setting [1]) it was 248 nM.
In the same order, the values of `Cn1c(=O)c(Nc2ccc(N3CCOCC3)cn2)cc2c(Cl)c(-c3cc[nH]n3)ccc21` [Example 7, 5-Chloro-1-methyl-3-((5-morpholinepyridin-2-yl)amino)-6-(1H-pyrazol-3-yl)quinoline-2(1H)-one] are 10.3 nM and 211 nM.
For `Cn1c(=O)c(Nc2ccc(N3CCOCC3)cc2)nc2ccc(-c3cn[nH]c3)c(F)c21` [Example 46, 8-Fluoro-1-methyl-3-((4-morpholinephenyl)amino)-7-(1H-pyrazol-4-yl)quinoxaline-2(1H)-one], in that order: 9.5 nM and 114 nM.
For `Cn1c(=O)c(Nc2ccc(N3CCOCC3)cc2)nc2ccc(-c3c[nH]cn3)cc21` [Example 31, 7-(1H-imidazol-4-yl)-1-methyl-3-((4-morpholinephenyl)amino)quinoxaline-2(1H)-one], the half-maximal inhibitory concentration (IC50) at SYK kinase came to 81 nM; in the assay with AKT phosphorylation (setting [1]), 132 nM.
For `Cn1c(=O)c(Nc2ccc(N3CCOCC3)cn2)cc2c(F)c(-c3cc[nH]n3)ccc21` [Example 11, 5-Fluoro-1-methyl-3-((5-morpholinopyridin-2-yl)amino)-6-(1H-pyrazol-3-yl)quinoline-2(1H)-one], in that order: 15 nM and 230 nM.
For `Cn1c(=O)c(Nc2ccc(N3CCN(C4COC4)CC3)cn2)cc2c(F)c(-c3cc[nH]n3)ccc21` [Example 9, 5-Fluoro-1-methyl-3-((5-(4-(oxetan-3-yl)piperazin-1-yl)pyridin-2-yl)amino)-6-(1H-pyrazol-3-yl)quinoline-2(1H)-one], in that order: 12 nM and 170 nM.
Take `Cn1c(=O)c(Nc2ccc(N3CCC4(CC3)COC4)cn2)cc2c(F)c(-c3cc[nH]n3)ccc21` [Example 12, 5-Fluoro-1-methyl-3-[[5-(2-oxazole-7-azaspiro[3.5]nonane-7-yl)pyridin-2-yl]amino]-6-(1H-pyrazol-3)quinoline-2(1H)-one]: the figures for the IC50 at SYK kinase and with AKT phosphorylation (setting [1]) were 114 nM and 750 nM, respectively.
For the compound `Cn1c(=O)c(Nc2ccc(N3CCOCC3)c(F)c2)nc2ccc(-c3cn[nH]c3)cc21` [Example 48, 3-((3-Fluoro-4-morpholinephenyl)amino)-1-methyl-7-(1H-pyrazol-4-yl)quinoxaline-2(1H)-one], the IC50 was found to be 10.5 nM on SYK kinase and 114 nM with AKT phosphorylation (setting [1]).

As a reminder, the IC50 is the concentration that gives 50% inhibition.
